Test results taken from patent publication US11105813B2, “Method for target protein identification using thermal stability shift-based fluorescence difference in two-dimensional gel electrophoresis” (priority 2016, dated 2021).

Tests used:
PKCα [1] = biological target: T1, PKCα (Homo sapiens, UniProt P17252); assay: CETSA and isothermal dose-response, PKCα; assay type: cell-based; conditions: Jurkat cells, 48° C.
T1 construct: Jurkat cell was used for bryostatin 1; endogenous in cells; host or cells: Jurkat clone E6-1
Description: HEK293T cells were harvested with trypsin/EDTA solution and resuspended in a conical tube before compound treatment. […] After the compound treatment, cells were aliquoted, heated to a range of temperature for 3 min, and cooled to 25° C. for 3 min. The heated cells were harvested, washed with PBS, and resuspended with lysis buffer (PBS supplemented with protease inhibitor cocktail). The cell suspension was freeze-thawed three times with liquid nitrogen for cell lysis. Soluble fraction was separated from the cell lysate following centrifugation at 20,000 g for 20 min at 4° C. Procedures for isothermal dose-response (ITDR) analysis was identical with the above-mentioned procedures except that cells were treated with various compound concentrations and heated at a fixed temperature.
Western blot—The soluble fraction was mixed with 5×Laemmli buffer followed by heating at 95° C. for 5 min. Proteins were separated by SDS-PAGE and transferred to PVDF membranes. […] The membranes were developed with Amersham ECL prime western blotting detection reagent [GE Healthcare], and detected by ChemiDoc [Bio-Rad]. The relative band intensities to 37° C. was calculated within each of drug-treated group and control group each for the CETSA curves. For ITDR curves, the relative band intensities to DMSO group was calculated. […]

PKCα [2] = biological target: T1, PKCα; assay: Translocation of PKCα between soluble and insoluble fraction (western blot); assay type: cell-based; conditions: lysis buffer without a mild detergent
[3] = test system: translation of the luciferase reporter gene; assay: In vitro protein translation (luciferase reporter); assay type: biochemical; conditions: 30° C. for 1 h
Description: (§1) In vitro protein translation—TNT quick coupled transcription/translation system [Promega] was used for in vitro translation. TNT Quick Master Mix and T7 luciferase control DNA were mixed according to the manufacturer's protocol, and incubated with compounds at 30° C. for 1 h. After the addition of Luciferase assay reagent [Promega], luminescence from the control luciferase product was read by Synergy HT [BioTek] to measure the effect of compounds on protein translation.

nucleophosmin (NPM) = biological target: T2, nucleophosmin (NPM) (Homo sapiens, UniProt P06748); assay: CETSA and isothermal dose-response, NPM; assay type: cell-based; conditions: HEK293T cells, compared to β-tubulin and GAPDH
T2 construct: hordenine with HEK293T cells at 20 μM for 3 h; endogenous in cells; host or cells: HEK293T
Description: (§2) Western blot—The soluble fraction was mixed with 5×Laemmli buffer followed by heating at 95° C. for 5 min. Proteins were separated by SDS-PAGE and transferred to PVDF membranes. The membranes were in tris-buffered saline with Tween-20 (TBST) including 2% BSA for 1 h at 4° C., and incubated with primary antibodies (anti-DHFR [ab133546, abcam], anti-TYMS [3766, Cell signaling], anti-PKCα [2056, Cell signaling], anti-PKCβI [ab195039, abcam], anti-PKCβII [ab32026, abcam], anti-PKCγ [402 ab131222, abcam], anti-PKCδ [9616, Cell signaling], anti-PKCε [ab124806, abcam], anti-PKCμ [2052, Cell signaling], anti-PKCθ [ab110728, abcam], anti-PKCζ [9368, Cell signaling], anti-NPM [ab52644, abcam], anti-RPSA [ab133645, abcam], anti-SET [ab176567, abcam], anti-EEF1D [ab88868, abcam], anti-GAPDH [2118, Cell signaling], and anti-β-tubulin [2146, Cell signaling])) overnight. The membrane was then washed with TBST and incubated with secondary antibodies (anti-rabbit IgG, HRP linked [7074, Cell signaling]) for 1 h at room temperature. The membranes were developed with Amersham ECL prime western blotting detection reagent [GE Healthcare], and detected by ChemiDoc [Bio-Rad]. The relative band intensities to 37° C. was calculated within each of drug-treated group and control group each for the CETSA curves. For ITDR curves, the relative band intensities to DMSO group was calculated.

[4] = biological target: T3, elongation factor 1-delta (EEF1D) (Homo sapiens, UniProt P29692); assay: CETSA, EEF1D; assay type: cell-based; conditions: HEK293T cells
T3 construct: hordenine with HEK293T cells at 20 μM for 3 h; endogenous in cells; host or cells: HEK293T
T3 sequence (P29692 1-281): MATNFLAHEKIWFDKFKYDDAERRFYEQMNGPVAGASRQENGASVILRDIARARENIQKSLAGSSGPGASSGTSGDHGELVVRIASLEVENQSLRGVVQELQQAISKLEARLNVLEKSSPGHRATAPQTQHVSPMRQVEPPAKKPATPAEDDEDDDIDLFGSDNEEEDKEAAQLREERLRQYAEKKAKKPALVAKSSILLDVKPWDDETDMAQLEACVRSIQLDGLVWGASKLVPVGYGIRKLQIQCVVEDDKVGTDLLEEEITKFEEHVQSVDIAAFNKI
Description: as §2

protein SET (SET) = biological target: T4, protein SET (SET) (Homo sapiens, UniProt Q01105); assay: CETSA, SET; assay type: cell-based; conditions: HEK293T cells
T4 construct: hordenine with HEK293T cells at 20 μM for 3 h; endogenous in cells; host or cells: HEK293T
Description: as §2

[5] = biological target: T5, 40S ribosomal protein SA (RPSA) (Homo sapiens, UniProt P08865); assay: CETSA, RPSA; assay type: cell-based; conditions: HEK293T cells
T5 construct: hordenine with HEK293T cells at 20 μM for 3 h; endogenous in cells; host or cells: HEK293T
Description: as §2

NPM = biological target: T6, NPM (Oryctolagus cuniculus, UniProt G1T0N4); assay: Nucleophosmin depletion for functional validation (in vitro translation); assay type: biochemical; conditions: 10 μM of hordenine, 30° C. for 1 h
T6 construct: incubated with the in vitro translation system to scavenge NPM; tissue Promega; host or cells: TNT Quick Master Mix (reticulocyte lysate, own knowledge)
Description: as §1
Nucleophosmin depletion for functional validation—Protein G sepharose beads [Sigma] were washed with PBS and incubated with anti-NPM antibody at 4° C. for 2 h. Unbound antibodies were washed away. The anti-NPM bound Protein G beads were mixed with TNT Quick Master Mix and incubated at 4° C. for 2 h. The beads were removed by centrifugation, and the supernatant was incubated with T7 luciferase control DNA and 10 μM of hordenine at 30° C. for 1 h. Luminescence was read after the addition of Luciferase assay reagent.

T4 sequence (Q01105 whole entry): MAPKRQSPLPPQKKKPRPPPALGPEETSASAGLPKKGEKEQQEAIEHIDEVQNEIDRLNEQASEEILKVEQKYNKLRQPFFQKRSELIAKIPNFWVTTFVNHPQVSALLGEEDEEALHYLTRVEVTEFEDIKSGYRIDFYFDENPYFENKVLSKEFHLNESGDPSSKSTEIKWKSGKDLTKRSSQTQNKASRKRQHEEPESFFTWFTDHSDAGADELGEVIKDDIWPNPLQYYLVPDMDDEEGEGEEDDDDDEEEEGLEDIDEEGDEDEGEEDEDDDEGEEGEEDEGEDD
T6 sequence (G1T0N4 1-294): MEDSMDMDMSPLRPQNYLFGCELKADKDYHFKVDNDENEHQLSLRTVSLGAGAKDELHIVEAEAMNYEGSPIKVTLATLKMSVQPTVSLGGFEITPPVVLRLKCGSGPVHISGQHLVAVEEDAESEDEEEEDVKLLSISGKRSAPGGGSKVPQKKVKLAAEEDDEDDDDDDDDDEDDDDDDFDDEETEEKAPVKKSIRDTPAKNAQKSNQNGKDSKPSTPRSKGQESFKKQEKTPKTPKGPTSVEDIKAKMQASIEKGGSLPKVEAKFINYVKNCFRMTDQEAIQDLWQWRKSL
T2 sequence (P06748 whole entry): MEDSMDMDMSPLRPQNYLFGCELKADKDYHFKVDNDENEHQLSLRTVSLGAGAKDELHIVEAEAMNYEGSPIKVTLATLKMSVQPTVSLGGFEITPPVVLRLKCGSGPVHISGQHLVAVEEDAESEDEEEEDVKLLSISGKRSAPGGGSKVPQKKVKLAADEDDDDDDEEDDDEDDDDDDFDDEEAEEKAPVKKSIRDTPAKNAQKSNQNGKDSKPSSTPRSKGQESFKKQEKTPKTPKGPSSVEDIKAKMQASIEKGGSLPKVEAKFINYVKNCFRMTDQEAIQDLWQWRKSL

| Structure (SMILES) | isothermal dose-response of PKCα (PKCα [1]) | location of PKCα (soluble / insoluble fraction) (PKCα [2]) | effect on translation of the luciferase reporter gene [3] | thermal stability shift of NPM (CETSA) (nucleophosmin (NPM)) | thermal stability shift of EEF1D (CETSA) [4] | thermal stability shift of SET (CETSA) (protein SET (SET)) | thermal stability shift of RPSA (CETSA) [5] | upregulating efficacy on luciferase gene translation diminished after NPM depletion (NPM) [%] |
| --- | --- | --- | --- | --- | --- | --- | --- | --- |
| CCC/C=C/C=C/C(=O)O[C@H]1/C(=C/C(=O)OC)C[C@H]2C[C@H]([C@@H](C)O)OC(=O)C[C@H](O)C[C@@H]3C[C@H](OC(C)=O)C(C)(C)[C@](O)(C[C@@H]4C/C(=C/C(=O)OC)C[C@H](/C=C/C(C)(C)[C@]1(O)O2)O4)O3 [bryostatin 1] | dose-dependent thermal destabilization | moved to insoluble fraction |  |  |  |  |  |  |
| CN(C)CCc1ccc(O)cc1 [hordenine, N,N-dimethyltyramine] |  |  | increase the translation | significant thermal stabilization | did not | did not | did not | 72.7 |
